Values of other authors in PubChem BioAssay AID1259409 (Chemical Carcinogenesis Research Information System (CCRIS), 2018).

System: rodent chemically induced tumor inhibition, incidence and multiplicity
Assay: CCRIS tumor inhibitor studies
Conditions: Promoter: NONE USED

SMILES: NC(N)=NCCC[C@H](N)C(=O)O
- tumour outcome (control, treated, inhibition, significance) (Carcinogen: 7,12-DIMETHYLBENZ[A]ANTHRACENE, 57-97-6, Dose [Inhibitor]: 0, 5% IN A 14% CASEIN DIET BEGINNING 2 WK PRIOR TO CARCINOGEN DOSE AND CONTINUING FOR 21 WK (STUDY DURATION: 23 WK), Route [Inhibitor]: ORAL, Species: RAT, Strain/Sex: SPRAGUE-DAWLEY/FEMALE, Target Tissue: Type of Lesion: MAMMARY GLAND: TUMOR, Dose [Carcinogen]: 7.5 MG IN 0.75 ML SESAME OIL ONCE AT 50 D OF AGE): 24/30 (80%), 22/30 (73%), 8%, not significant
- tumour outcome (control, treated, inhibition, significance) (Carcinogen: 7,12-DIMETHYLBENZ[A]ANTHRACENE, 57-97-6, Dose [Inhibitor]: 5% L-ARGININE IN DIET STARTING 7 D BEFORE DMBA ADMINISTRATION (STUDY DURATION: 21 WK), Route [Inhibitor]: ORAL, Species: RAT, Strain/Sex: SPRAGUE DAWLEY/FEMALE, Target Tissue: Type of Lesion: MAMMARY GLAND: TUMOR, Dose [Carcinogen]: 15% OIL EMULSION, 25 MG/KG BW ADMINISTERED ONCE): 95%, 25%, 74%, not calculated
- tumour outcome (control, treated, inhibition, significance) (Carcinogen: 7,12-DIMETHYLBENZ[A]ANTHRACENE, 57-97-6, Dose [Inhibitor]: 5% L-ARGININE IN DIET STARTING 7 D BEFORE DMBA TREATMENT FOR 3 M AND THEN CONTROL DIET (STUDY DURATION: 32 WK), Route [Inhibitor]: ORAL, Species: RAT, Strain/Sex: SPRAGUE DAWLEY/FEMALE, Target Tissue: Type of Lesion: MAMMARY GLAND: TUMOR, Dose [Carcinogen]: 15% OIL EMULSION, 25 MG/KG BW ADMINISTERED ONCE): 100%, 80%, 20%, not calculated
- tumour outcome (control, treated, inhibition, significance) (Carcinogen: HYDRAZINE SULFATE, 10034-93-2, Dose [Inhibitor]: 1.1 MG/D IN DIET STARTING 1 WK PRIOR TO ADMINISTRATION OF CARCINOGEN UNTIL END OF EXPERIMENT (STUDY DURATION: APPROXIMAT, Route [Inhibitor]: ORAL, Species: MOUSE, Strain/Sex: SWISS/MALE, FEMALE, Target Tissue: Type of Lesion: LIVER AND LUNG: COMBINED TUMORS, Dose [Carcinogen]: 1.1 MG/D 5 D/WK UNTIL 12 MO OF AGE): 24/29 (83%), 11/18 (61%), 26%, not significant
- tumour outcome (control, treated, inhibition, significance) (Carcinogen: ISONIAZID, 54-85-3, Dose [Inhibitor]: 1.1 MG/MOUSE/D SIMULTANEOUS WITH CARCINOGEN 6 D/WK (STUDY DURATION: 24 MO), Route [Inhibitor]: INTRAGASTRIC, Species: MOUSE, Strain/Sex: SWISS/MALE, Target Tissue: Type of Lesion: LUNG: TUMOR, Dose [Carcinogen]: 1.1 MG/MOUSE/D SIMULTANEOUS WITH INHIBITOR): 15/29 (52%), 3/10 (30%), 42%, not significant
- tumour outcome (control, treated, inhibition, significance) (Carcinogen: N-METHYL-N-NITROSOUREA, 684-93-5, Dose [Inhibitor]: 0, 5% IN A 14% CASEIN DIET BEGINNING 2 WK PRIOR TO CARCINOGEN DOSE AND CONTINUING FOR 21 WK (STUDY DURATION: 23 WK), Route [Inhibitor]: ORAL, Species: RAT, Strain/Sex: SPRAGUE-DAWLEY/FEMALE, Target Tissue: Type of Lesion: MAMMARY GLAND: TUMOR, Dose [Carcinogen]: 4 MG/100 G BW ONCE AT 50 D OF AGE): 28/30 (93%), 27/30 (90%), 3%, not significant
